Experimental data from ChEMBL document CHEMBL1147059, “Replication and homologous recombination repair regulate DNA double-strand break formation by the antitumor alkylator ecteinascidin 743” (Proc Natl Acad Sci U S A, 2007).
Calls of active or inactive are those of the source. The rule behind the calls is not given here.

How the values were obtained:
[1] = Induction of chromosome damage in BRCA2 deficient Chinese hamster V-C8 cells assessed as number of radials per 100 metaphases at 2 nM for 1 hr followed by post incubation in drug-free media for 24 hrs; format: cell-based, Cricetulus griseus; details: v-c8, 1 h, 0.002 µM
[2] = Cytotoxicity in homologous recombination repair BRCA2 gene deficient Chinese hamster V-C8 cells assessed as cell viability by MTT assay relative to wild type cells; format: functional, Cricetulus griseus
[3] = Effect on cell cycle progression in Chinese hamster homologous recombination repair XRCC3 gene deficient irs1SF cells assessed as increase in accumulation at G2/M phase at 6 nM for 1 hr followed by post incubation in drug-free media for 24 hrs relative to control; format: functional, Cricetulus griseus
HeLa [4] = assay: Induction of DNA double strand breaks in human HeLa cells assessed as phosphorylated histone H2AX formation after 1 hr by immunostaining; format: functional, cell-based
CHO-AA8 [5] = assay: Effect on cell cycle progression in Chinese hamster AA8 cells assessed as accumulation at S phase at 140 nM; format: functional, cell-based; details: Cricetulus griseus
CHO-AA8 [6] = assay: Induction of DNA double strand breaks in Chinese hamster AA8 cells at 100 nM after 1 hr by comet assay; format: functional, Cricetulus griseus
[7] = Induction of chromosome damage in BRCA2 deficient Chinese hamster V-C8 cells assessed as number of damaged chromosomes per 100 metaphases at 1 nM for 1 hr followed by post incubation in drug-free media for 24 hrs; format: functional, Cricetulus griseus
HeLa [8] = assay: Induction of DNA double strand breaks in human S-phase synchronized HeLa cells by alkaline comet assay; format: functional, cell-based
CCRF-CEM [9] = assay: Induction of DNA double strand breaks in human CEM cells assessed as phosphorylated histone H2AX formation after 1 hr by immunostaining; format: functional, cell-based
V79 [10] = assay: Induction of chromosome damage in Chinese hamster V79 cells assessed as number of radials per 100 metaphases at 50 nM for 1 hr followed by post incubation in drug-free media for 24 hrs; format: functional, Cricetulus griseus
[11] = Effect on cell cycle distribution in Chinese hamster homologous recombination repair XRCC3 gene deficient irs1SF cells after 1 hr followed by post incubation in drug-free media; format: functional, Cricetulus griseus
[12] = Cytotoxicity in homologous recombination repair RAD51C gene deficient Chinese hamster CL-V4B cells assessed as cell viability by MTT assay relative to wild type cells; format: functional, Cricetulus griseus
V79 [13] = assay: Induction of chromosome damage in Chinese hamster V79 cells assessed as number of damaged chromosomes per 100 metaphases at 100 nM for 1 hr followed by post incubation in drug-free media for 24 hrs; format: functional, Cricetulus griseus
CCRF-CEM [14] = assay: Induction of DNA double strand breaks in human CEM cells at 100 nM by alkaline comet assay; format: functional, cell-based
[15] = Induction of chromosome damage in BRCA2 deficient Chinese hamster V-C8 cells assessed as number of radials per 100 metaphases at 5 nM for 1 hr followed by post incubation in drug-free media for 24 hrs; format: functional, Cricetulus griseus
CHO-AA8 [16] = assay: Induction of DNA double strand breaks in Chinese hamster AA8 cells assessed as phosphorylated histone H2AX formation after 1 hr by immunostaining; format: functional, cell-based; details: Cricetulus griseus
[17] = Effect on cell cycle progression in Chinese hamster homologous recombination repair XRCC3 gene deficient irs1SF cells assessed as increase in accumulation at S phase at 6 nM for 1 hr followed by post incubation in drug-free media for 6 hrs relative to control; format: functional, Cricetulus griseus
HeLa [18] = assay: Reduction of cellular viability in human HeLa cells at 20 nM after 1 hr by MTT assay; format: functional
Lymphocyte = assay: Induction of DNA double strand breaks in nonproliferating human lymphocytes at 100 nM by alkaline comet assay; format: functional, cell-based
V79 [19] = assay: Induction of chromosome damage in Chinese hamster V79 cells assessed as number of radials per 100 metaphases at 10 nM for 1 hr followed by post incubation in drug-free media for 24 hrs; format: functional, Cricetulus griseus
[20] = Induction of DNA double strand breaks in Chinese hamster homologous recombination repair XRCC3 gene deficient irs1SF cells at 100 nM after 1 hr by comet assay; format: functional, Cricetulus griseus
HeLa [21] = assay: Reduction of DNA synthesis in human HeLa cells at 30 nM after 1 hrs […]; format: functional; set-up: scale not given: the % may be the effect or the level left
HeLa [22] = assay: Reversal of induction of DNA double strand breaks in human HeLa cells at >50 nM in presence of aphidicolin after 1 hr by neutral comet assay; format: functional, cell-based
V79 [23] = assay: Induction of chromosome damage in Chinese hamster V79 cells assessed as number of damaged chromosomes per 100 metaphases at 50 nM for 1 hr followed by post incubation in drug-free media for 24 hrs; format: functional, Cricetulus griseus
[24] = Induction of chromosome damage in BRCA2 deficient Chinese hamster V-C8 cells assessed as number of radials per 100 metaphases at 1 nM for 1 hr followed by post incubation in drug-free media for 24 hrs; format: functional, Cricetulus griseus
[25] = Cytotoxicity in homologous recombination repair XRCC3 gene deficient Chinese hamster irs1SF cells assessed as cell viability by MTT assay relative to wild type cells; format: functional, Cricetulus griseus
HeLa [26] = assay: Induction of DNA double strand breaks in human HeLa cells after 1 hr by neutral comet assay; format: functional, cell-based
[27] = Induction of chromosome damage in BRCA2 deficient Chinese hamster V-C8 cells assessed as number of radials per 100 metaphases at 10 nM for 1 hr followed by post incubation in drug-free media for 24 hrs; format: functional, Cricetulus griseus
CHO-AA8 [28] = assay: Effect on cell cycle progression in Chinese hamster AA8 cells assessed as increase in accumulation at G2/M phase at 6 nM for 1 hr followed by post incubation in drug-free media for 6 hrs relative to control; format: functional, cell-based; details: Cricetulus griseus
[29] = Cytotoxicity in homologous recombination repair XRCC2 gene deficient Chinese hamster irs1 cells assessed as cell viability by MTT assay relative to wild type cells; format: functional, Cricetulus griseus
[30] = Induction of chromosome damage in BRCA2 deficient Chinese hamster V-C8 cells assessed as number of damaged chromosomes per 100 metaphases at 100 nM for 1 hr followed by post incubation in drug-free media for 24 hrs; format: functional, Cricetulus griseus
V79 [31] = assay: Induction of chromosome damage in Chinese hamster V79 cells assessed as number of radials per 100 metaphases at 100 nM for 1 hr followed by post incubation in drug-free media for 24 hrs; format: functional, Cricetulus griseus
CHO-AA8 [32] = assay: Effect on cell cycle distribution in Chinese hamster AA8 cells assessed as isotoxic dose after 1 hr; format: functional, Cricetulus griseus
[33] = Induction of chromosome damage in BRCA2 deficient Chinese hamster V-C8 cells assessed as number of damaged chromosomes per 100 metaphases at 2 nM for 1 hr followed by post incubation in drug-free media for 24 hrs; format: functional, Cricetulus griseus
V79 [34] = assay: Induction of chromosome damage in Chinese hamster V79 cells assessed as number of damaged chromosomes per 100 metaphases at 10 nM for 1 hr followed by post incubation in drug-free media for 24 hrs; format: functional, Cricetulus griseus
[35] = Induction of chromosome damage in BRCA2 deficient Chinese hamster V-C8 cells assessed as number of damaged chromosomes per 100 metaphases at 5 nM for 1 hr followed by post incubation in drug-free media for 24 hrs; format: functional, Cricetulus griseus
CHO-AA8 [36] = assay: Effect on cell cycle progression in Chinese hamster AA8 cells assessed as accumulation at G2 phase at 140 nM; format: functional, cell-based; details: Cricetulus griseus

## COc1cc2c(cc1O)CCN[C@]21CS[C@@H]2c3c(OC(C)=O)c(C)c4c(c3[C@H](COC1=O)N1[C@@H]2[C@H]2c3c(cc(C)c(OC)c3O)C[C@@H]([C@@H]1O)N2C)OCO4 [TRABECTEDIN]
[1]
  Activity: 1
[2]
  Fold change: 18
[3]
  Activity: 35%
HeLa [4]
  Activity: Active
CHO-AA8 [5]
  Activity: Active
CHO-AA8 [6]
  Activity: 20%
[7]
  Activity: 14
HeLa [8]
  Activity: Toxic
CCRF-CEM [9]
  Activity: Active
V79 [10]
  Activity: 27
[11]
  IC50: 6 nM
[12]
  Fold change: 8
V79 [13]
  Activity: 57
CCRF-CEM [14]
  Activity: Active
[15]
  Activity: 2
CHO-AA8 [16]
  Activity: Active
[17]
  Activity: 65%
HeLa [18]
  Activity: 50%
Lymphocyte
  Activity: inactive
V79 [19]
  Activity: 0
[20]
  Activity: 19%
HeLa [21]
  Activity: 50%
HeLa [22]
  Activity: Active
V79 [23]
  Activity: 50
[24]
  Activity: 1
[25]
  Fold change: 23
HeLa [26]
  Activity: Dose-dependent effect
[27]
  Activity: 3
CHO-AA8 [28]
  Activity: inactive
[29]
  Fold change: 8
[30]
  Activity: 100
V79 [31]
  Activity: 24
CHO-AA8 [32]
  Activity: 140 nM
[33]
  Activity: 42
V79 [34]
  Activity: 1
[35]
  Activity: 90
CHO-AA8 [36]
  Activity: Active
